Results reported in patent US20120015414A1, “Production of organic compounds” (priority 2010, published 2012).

Experiments:
[1] = Spontaneous decarboxylation of synthetic beta-keto acid; conditions: synthetic acid from hydrogenolysis of the benzyl ester, no enzyme
OleC and OleD = biological target: T1, OleC and OleD (Xanthomonas campestris pv. campestris, UniProt Q8PDW5); experiment: Hydrocarbon detection enzyme assay, OleC and OleD without OleA; type: biochemical; conditions: substrate incubated with OleC and OleD
T1 construct: His6-tag with thrombin site (implied by Ni-column purification); made in house; host or cells: E. coli One Shot BL21 (DE3) for OleD
Description: (§1) Hydrocarbon Detection Enzyme Assay. […] Products were extracted with 250 μl ethyl acetate using 16-hentriacontanone ketone (Tokyo Kasei Kogyo Co., Ltd., Japan) as an internal standard. After vortexing and 5 min of gentle centrifugation, the top solvent layer was transferred to a glass vial and analyzed using a gas chromatograph equipped with a flame ionization detector HP 7890A (Hewlett Packard, Palo Alto) and mass spectrometer HP 5975C (GC-MS-FID). GC was conducted under the following conditions: helium gas, 1.75 ml/min; HP-1 ms column (100% dimethylsiloxane capillary; 30 m by 250 μm by 0.25 μm); temperature ramp, 100° C. to 320° C.; 10° C./min, hold at 320° C. for 5 min, 250° C. injection port, and split at the outlet between MS and FID. The mass spectrometer was run under the following conditions: electron impact at 70 eV and 35 μA. The flame ionization detector was set at 250° C. with hydrogen flow set at 30 ml/min, air set at 400 ml/min, and helium makeup gas set at 25 ml/min.
The identity of the compound was confirmed by the mass spectrum shown above the GC chromatogram in FIG. III-6A, with the major ion, m/z 378, representing the molecular ion.
Next, it was tested if the ketone 14-heptacosanone could also give rise to 14-heptacosene or any other discernible product.

OleA [2] = biological target: T2, OleA (Xanthomonas campestris pv. campestris, UniProt Q8PDX2); experiment: Release of CoASH thiol (DTNB) for assay of OleA substrate range; type: biochemical; conditions: for reaction with OleA to release coenzyme A: incubation time in which palmitoyl-CoA reacts completely; for % of Theoretical / CoA Product: starting substrate 65 μM; for % of Theoretical: 65 μM of product is 100% of theoretical yield; for CoA Product: free coenzyme A detected with DTNB, average of triplicate determinations with standard error; for reaction stoichiometry, coenzyme A released per acyl-CoA consumed: substrate allowed to completely react
T2 construct: His-tag (N); made in house; host or cells: E. coli One Shot BL21 (DE3), pET28b+
Description: Detecting the Release of CoASH Thiol for Assay of OleA Substrate Range. Release of the free thiol group of CoASH was detected by the addition of 5,5′-dithio-bis-(2-nitrobenzoic acid) (DTNB) measured spectrophotometrically at 412 nm (ε412=13,600 M^−1 cm^−1) (Alexson et al. 1988, J. Biol. Chem. 263:13564-13571; Ellman et al. 1958. Arch Biochem. Biophys. 74:443-450). […] DTNB was incubated with the reaction for 2 min and quantified spectrophotometrically.
Initial Defining of Substrate Specificity and Reaction Products of OleA. Enzymes catalyzing condensation or hydrolysis reactions with acyl-CoA substrates release coenzyme A that can be assayed colorimetrically using DTNB (Alexson et al. 1988. J. Biol. Chem. 263:13564-13571; Skaff et al. 2010. Anal. Biochem. 396:288-296; Sleeman et al. 2004. J. Biol. Chem. 279:6730-6736; Yashiro et al. 1995. Biochim. Biophys. 1258:288-96). […] With purified OleA, DTNB was used to determine the stoichiometry of coenzyme A formation and to begin to discern the substrate specificity of OleA.
First, the coenzyme A product stoichiometry was determined using either myristoyl-CoA or palmitoyl-CoA and allowing the substrate to completely react. With either substrate, the reaction stoichiometry was 1.0 mole of coenzyme A released for each mole of acyl-CoA consumed. In this manner, acyl-CoA chains of different lengths were tested with OleA using a time of incubation in which palmitoyl-CoA reacts completely as described in the Methods section. Under those conditions (Table III-2) palmitoyl-CoA reacted more completely than myristoyl-CoA.

OleA [3] = biological target: T2, OleA; experiment: GC-MS/GC-FID product analysis of OleA reactions with acyl-CoA substrates; type: biochemical; conditions: peak area integration
Description: Subsequent experiments were conducted to examine if coenzyme A was formed as a consequence of acyl-group condensation, thioester bond hydrolysis, or some mixture of the two reactions. Based on previous observations (Beller et al. 2010. Appl. Environ. Microbiol. 76:1212-1223; Sukovich et al. 2010. Appl. Environ. Microbiol. 76:3850-62; Friedman et al. 2008. International Patent WO2008/113041), it was known that long-chain ketones were the observed condensation products. In subsequent experiments in this study, it was shown that β-keto acids are the initial products and those decarboxylate quantitatively to the corresponding ketone. In this context, reaction mixtures were solvent extracted and subjected to GC-MS to identify ketones derived from condensation and/or fatty acids derived from acyl chain hydrolysis.
In this context, experiments were conducted with mixtures of fatty acyl-CoA substrates. All pairwise combinations of C10, C12, C14, C16, saturated and C16 monounsaturated (C16:1) acyl-CoA substrates were incubated, extracted, and analyzed for products by GC-MS and GC-FID. In all, 15 product mixtures were analyzed. […] Only with C12 acyl condensation and C14 plus C16:1 condensation were the major products derived from a condensation of fatty acyl chains. In the case of C14 condensations (myristoyl-CoA), the ketone 14-heptacosanone was produced at only slightly lower levels than the hydrolysis product myristic acid.

Synechococcus [4] = experiment: Growth in BG11AN medium supplemented with lactic acid; type: cell-based
Source text: To maintain the co-culture of the cyanobacterium (Synechococcus) and the heterotroph (Shewanella), a minimal medium was established that would support growth of both Shewanella and Synechococcus. We started with the preferred medium for Synechococcus, known as BG11. […] A modified Synechococcus minimal medium, denoted here as BG11AN medium, was used and supplemented with lactic acid to test both lactate inhibition and ammonia inhibition. BG11AN has ammonium nitrate at 1.5 g/L replacing the sodium nitrate used in BG11. Shewanella grew well in BG11AN medium. The Synechococcus grew in the BG11AN medium, not as well as in BG11, but acceptably. The cultures in BG11 AN were more of a yellow green than the deep green of the BG11 culture. […] In fact, it stimulated growth at levels up to 0.5 g/L. It was concluded that the BG11AN medium can be used for co-culture of Synechococcus and Shewanella in subsequent experiments.

OleA, OleC and OleD = biological target: T3, OleA, OleC and OleD (Xanthomonas campestris pv. campestris, UniProt Q8PDX2); experiment: Hydrocarbon detection enzyme assay, OleA, OleC and OleD; type: biochemical; conditions: substrate incubated with OleA
T3 construct: His-tag (N); made in house
T3 sequence (Q8PDX2 1-338): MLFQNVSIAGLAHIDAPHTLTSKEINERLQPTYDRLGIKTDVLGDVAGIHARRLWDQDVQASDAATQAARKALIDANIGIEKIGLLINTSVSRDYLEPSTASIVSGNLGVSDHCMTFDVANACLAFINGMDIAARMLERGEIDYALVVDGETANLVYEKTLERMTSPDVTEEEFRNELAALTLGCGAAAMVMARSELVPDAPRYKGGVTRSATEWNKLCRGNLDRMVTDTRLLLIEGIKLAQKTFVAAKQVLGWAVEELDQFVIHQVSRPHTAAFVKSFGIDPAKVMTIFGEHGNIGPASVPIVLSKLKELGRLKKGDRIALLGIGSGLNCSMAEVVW
Description: as §1
(§2) Role of OleA in olefin biosynthesis. […] Other Ole proteins were purified as described in the methods section and tested in admixture with OleA and with myristoyl-CoA as the substrate. […] The identities of the products were confirmed by mass spectrometry.

OleA and OleC = biological target: T4, OleA and OleC (Xanthomonas campestris pv. campestris, UniProt Q8PDX2); experiment: Hydrocarbon detection enzyme assay, OleA and OleC in admixture; type: biochemical; conditions: substrate incubated with OleA and OleC
T4 construct: His-tag (N); made in house; host or cells: E. coli (OleA)
T4 sequence (Q8PDX2 1-338): T3 sequence (Q8PDX2 1-338)
Description: as §1, §2

Synechococcus [5] = experiment: Effect of growth supplements of the type found in corn steep liquor on Synechococcus; type: cell-based; conditions: flasks supplemented
Source text: The effects of growth supplements of the type found in corn steep liquor on the growth of Synechococcus and Shewanella were examined.

T1 sequence (Q8PDW5 2-337, added parts left off): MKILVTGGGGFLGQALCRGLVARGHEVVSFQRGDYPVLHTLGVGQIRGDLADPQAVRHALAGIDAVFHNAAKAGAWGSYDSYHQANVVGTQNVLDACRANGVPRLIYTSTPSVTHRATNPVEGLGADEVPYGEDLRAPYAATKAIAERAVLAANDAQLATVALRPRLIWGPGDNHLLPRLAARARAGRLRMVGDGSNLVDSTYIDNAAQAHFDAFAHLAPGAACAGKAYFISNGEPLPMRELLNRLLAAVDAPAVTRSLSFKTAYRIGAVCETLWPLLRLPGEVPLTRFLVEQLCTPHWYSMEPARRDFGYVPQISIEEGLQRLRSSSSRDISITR

| SMILES | reaction with OleA to release coenzyme A (OleA [2]) | % of Theoretical (OleA [2]) [%] | CoA Product (OleA [2]) [µM] | also measured |
| --- | --- | --- | --- | --- |
| CCCCCCCCCCCCCC(=O)C(CCCCCCCCCCCC)C(=O)O (racemic) [2-myristoylmyristic acid] |  |  |  | stability, decarboxylation to 14-heptacosanone [1]: rapid decarboxylation; products observed by GC-MS (OleC and OleD): yielded 14-heptacosanone and the expected olefinic product from head-to-head condensation, 14-heptacosene |
| CCCCCCCCCCCCCC(=O)CCCCCCCCCCCCC [14-heptacosanone] |  |  |  | products observed by GC-MS (OleC and OleD): 14-heptacosene was not detected |
| CC(=O)SCCNC(=O)CCNC(=O)[C@H](O)C(C)(C)COP(=O)(O)OP(=O)(O)OC[C@H]1O[C@@H](n2cnc3c(N)ncnc32)[C@H](O)[C@@H]1OP(=O)(O)O [Acetyl-CoA] | did not |  |  |  |
| CCCCCCCCCC(=O)SCCNC(=O)CCNC(=O)[C@H](O)C(C)(C)COP(=O)(O)OP(=O)(O)OC[C@H]1O[C@@H](n2cnc3c(N)ncnc32)[C@H](O)[C@@H]1OP(=O)(O)O [Decanoyl-CoA] | undergo reaction to release coenzyme A | 42 | 27.2 ± 1.6 | Products, ketones (Cx) and fatty acids (FAx), in order of decreasing abundance (OleA [3]; second fatty acyl-CoA chain C10): FA10 > C19 |
| CC(O)C(=O)O (centres unmarked) [Lactic acid] |  |  |  | level at which growth was not inhibited (Synechococcus [4]): ≤ 1 g/L; level at which growth was stimulated (Synechococcus [4]): up to 0.5 g/L |
| CCCCCCCCCCCC(=O)SCCNC(=O)CCNC(=O)[C@H](O)C(C)(C)COP(=O)(O)OP(=O)(O)OC[C@H]1O[C@@H](n2cnc3c(N)ncnc32)[C@H](O)[C@@H]1OP(=O)(O)O [Lauroyl-CoA] | undergo reaction to release coenzyme A | 79 | 51.4 ± 1.9 |  |
| CCCCCCCCCCCCCC(=O)SCCNC(=O)CCNC(=O)[C@H](O)C(C)(C)COP(=O)(O)OP(=O)(O)OC[C@H]1O[C@@H](n2cnc3c(N)ncnc32)[C@H](O)[C@@H]1OP(=O)(O)O [Myristoyl-CoA] |  | 97 | 63.2 ± 0.4 | products observed by GC-MS (OleA, OleC and OleD): the olefin 14-heptacosene (20.4 min) was observed in addition to the peak corresponding to 14-heptacosanone; products observed by GC-MS (OleA and OleC): produced only 14-heptacosanone; reaction stoichiometry, coenzyme A released per acyl-CoA consumed (OleA [2]): 1.0 mole of coenzyme A released for each mole of acyl-CoA consumed; Products, ketones (Cx) and fatty acids (FAx), in order of decreasing abundance (OleA [3]; second fatty acyl-CoA chain C14): FA14 > C27 |
| CCCCCCCC(=O)SCCNC(=O)CCNC(=O)[C@H](O)C(C)(C)COP(=O)(O)OP(=O)(O)OC[C@H]1O[C@@H](n2cnc3c(N)ncnc32)[C@H](O)[C@@H]1OP(=O)(O)O [Octanoyl-CoA] | undergo reaction to release coenzyme A | 12 | 8.0 ± 2.2 |  |
| CCCCCC/C=C\CCCCCCCC(=O)SCCNC(=O)CCNC(=O)[C@H](O)C(C)(C)COP(=O)(O)OP(=O)(O)OC[C@H]1O[C@@H](n2cnc3c(N)ncnc32)[C@H](O)[C@@H]1OP(=O)(O)O [Palmitoleoyl-CoA] | undergo reaction to release coenzyme A | 57 | 36.9 ± 0.9 | Products, ketones (Cx) and fatty acids (FAx), in order of decreasing abundance (OleA [3]; second fatty acyl-CoA chain C16:1): FA16:1 > C31:2 |
| CCCCCCCCCCCCCCCC(=O)SCCNC(=O)CCNC(=O)[C@H](O)C(C)(C)COP(=O)(O)OP(=O)(O)OC[C@H]1O[C@@H](n2cnc3c(N)ncnc32)[C@H](O)[C@@H]1OP(=O)(O)O [Palmitoyl-CoA] |  | 100 | 65.0 ± 0.9 | reaction stoichiometry, coenzyme A released per acyl-CoA consumed (OleA [2]): 1.0 mole of coenzyme A released for each mole of acyl-CoA consumed; Products, ketones (Cx) and fatty acids (FAx), in order of decreasing abundance (OleA [3]; second fatty acyl-CoA chain C16): FA16 > C31 |
| CCCCCCCCCCCCCCCCCC(=O)SCCNC(=O)CCNC(=O)[C@H](O)C(C)(C)COP(=O)(O)OP(=O)(O)OC[C@H]1O[C@@H](n2cnc3c(N)ncnc32)[C@H](O)[C@@H]1OP(=O)(O)O [Stearoyl-CoA] | undergo reaction to release coenzyme A | 29 | 18.7 ± 1.8 |  |
| N[C@@H](CCC(=O)O)C(=O)O [glutamate] |  |  |  | effect on growth of Synechococcus (Synechococcus [5]): slightly better growth |
| NC(=O)CC[C@H](N)C(=O)O [glutamine] |  |  |  | effect on growth of Synechococcus (Synechococcus [5]): slightly better growth |
